Test results reported in patent US20060069132A1, “Azolecarboxamide herbicides” (priority 2004, published 2006).

Experiments:
[1] = system: giant foxtail; experiment: Test A pre-/postemergence herbicide test; format: in vivo, Setaria faberi; details: for Plant response rating, Foxtail, Giant: Postemergence; for Foxtail, Giant plant response rating: Preemergence
Method in brief: (§1)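 Greenhouse injury scoring (0–100, complete control = 100) at approximately ten days follows simultaneous pre- and postemergence application. Soil received a directed spray after seeding; seedlings of 2–10 cm at the one- to two-leaf stage were sprayed to runoff.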

[2] = system: morningglory; experiment: Test B pre-/postemergence herbicide test; format: in vivo, Ipomoea coccinea
Method in brief: (§2)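 Seeds were planted and treated preemergence with compounds formulated in a non-phytotoxic solvent mixture containing surfactant, while plants at the 1- to 4-leaf stage (2 to 18 cm) received postemergence sprays. Flooded paddy plants were grown to the 2-leaf stage. After 13 to 15 days in a greenhouse, injury was visually rated 0–100 against untreated controls.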

[3] = system: large crabgrass; experiment: Test B pre-/postemergence herbicide test; format: in vivo, Digitaria sanguinalis
Method in brief: (§3)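 Plants compared with untreated controls 13–15 days post-treatment and given a visual 0–100 injury score. Applications: preemergence to seeds; postemergence at 1- to 4-leaf (2–18 cm); paddy species flooded, 2-leaf stage. Vehicle non-phytotoxic, surfactant included.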

[4] = system: barnyardgrass; experiment: Test B pre-/postemergence herbicide test; format: in vivo, Echinochloa crus-galli
Method in brief: as §2

[5] = system: redroot pigweed; experiment: Test A pre-/postemergence herbicide test; format: in vivo, Amaranthus retroflexus; details: for Plant response rating, Pigweed: Postemergence; for Pigweed plant response rating: Preemergence
Method in brief: as §1

[6] = system: pigweed; experiment: Test B pre-/postemergence herbicide test; format: in vivo, Amaranthus retroflexus
Method in brief: as §3

[7] = system: lambsquarters; experiment: Test B pre-/postemergence herbicide test; format: in vivo, Chenopodium album
Method in brief: as §3

[8] = system: barnyardgrass; experiment: Test A pre-/postemergence herbicide test; format: in vivo, Echinochloa crus-galli; details: for Plant response rating, Barnyardgrass: Postemergence; for Barnyardgrass plant response rating: Preemergence
Method in brief: as §1

[9] = system: Surinam grass; experiment: Test B pre-/postemergence herbicide test; format: in vivo, Urochloa decumbens
Method in brief: as §3

[10] = system: morningglory; experiment: Test A pre-/postemergence herbicide test; format: in vivo, Ipomoea spp.; details: for Plant response rating, Morningglory: Postemergence; for Morningglory plant response rating: Preemergence
Method in brief: as §1

[11] = system: blackgrass; experiment: Test B postemergence herbicide test; format: in vivo, Alopecurus myosuroides
Method in brief: (§4)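 Postemergence plants were sprayed with formulated test chemicals at 2 to 18 cm height (1- to 4-leaf stage); paddy species were grown to the 2-leaf stage. After 13 to 15 days in a greenhouse, injury was rated visually against untreated controls on a 0–100 scale (0 = no effect, 100 = complete control).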

[12] = system: ducksalad; experiment: Test B flooded paddy test; format: in vivo, Heteranthera limosa; details: scale 0 to 100 (0 no effect, 100 complete control)
Method in brief: as §4

[13] = system: cocklebur; experiment: Test B pre-/postemergence herbicide test; format: in vivo, Xanthium strumarium
Method in brief: as §2

[14] = system: velvetleaf; experiment: Test A pre-/postemergence herbicide test; format: in vivo, Abutilon theophrasti; details: for Velvetleaf plant response rating: Preemergence
Method in brief: as §1

[15] = system: velvetleaf; experiment: Test B pre-/postemergence herbicide test; format: in vivo, Abutilon theophrasti
Method in brief: as §3

[16] = system: wild oat; experiment: Test B postemergence herbicide test; format: in vivo, Avena fatua
Method in brief: (§5)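 Greenhouse test; postemergence application to plants at 1–4 leaves (2–18 cm); paddy species at 2 leaves; evaluated visually vs controls at 13–15 days; scale 0–100 (100 = complete control).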

[17] = system: barnyardgrass; experiment: Test B flooded paddy test; format: in vivo, Echinochloa crus-galli; details: scale 0 to 100 (0 no effect, 100 complete control)
Method in brief: as §4

[18] = system: rice; experiment: Test B flooded paddy test; format: in vivo, Oryza sativa; details: scale 0 to 100 (0 no effect, 100 complete control)
Method in brief: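 Formulated test chemicals went onto postemergence plants measuring 2 to 18 cm, at one to four leaves. For the paddy assay, species had reached two leaves. Scoring took place 13–15 days later by eye, relative to untreated plants, using 0 for no effect up to 100 for full control.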

[19] = system: small flower umbrella sedge; experiment: Test B flooded paddy test; format: in vivo, Cyperus difformis; details: scale 0 to 100 (0 no effect, 100 complete control)
Method in brief: as §4

[20] = system: giant foxtail; experiment: Test B pre-/postemergence herbicide test; format: in vivo, Setaria faberi
Method in brief: as §3

[21] = system: large crabgrass; experiment: Test A pre-/postemergence herbicide test; format: in vivo, Digitaria sanguinalis; details: for Plant response rating, Crabgrass, Large: Postemergence; for Crabgrass, Large plant response rating: Preemergence
Method in brief: as §1

[22] = system: wheat; experiment: Test B postemergence herbicide test; format: in vivo, Triticum aestivum; design: key to Wheat plant response rating: 0 = no effect, 100 = complete control
Method in brief: as §5

[23] = system: corn; experiment: Test B pre-/postemergence herbicide test; format: in vivo, Zea mays
Method in brief: as §3

[24] = 500 g ai/ha, 0 to 100 scale, 0 no effect, 100 complete control
[25] = 2000 g ai/ha, 0 to 100 scale, 0 no effect, 100 complete control
[26] = 500 g ai/ha, visual rating, 0 to 100 scale (0 no effect, 100 complete control)
[27] = postemergence, 62 g ai/ha, scale 0 to 100
[28] = Postemergence, 250 g ai/ha, scale 0 (no effect) to 100 (complete control)
[29] = 1000 g ai/ha, visual rating, 13 to 15 days
[30] = Postemergence, 500 g ai/ha, scale 0 (no effect) to 100 (complete control)
[31] = postemergence, 125 g ai/ha, scale 0 to 100

CN1Cc2c(NC(=O)c3cc(C(C)(C)C)nn3C)cccc2C1=O [Compound 54] was tested, and the “Plant response rating, Foxtail, Giant” value [1, 24] was 10, the “Plant response rating, Foxtail, Giant” value [1, 25] was 5 and the “Foxtail, Giant plant response rating” value [1, 26] was 0. The “Foxtail, Giant plant response rating” value [1, 25] was 15, the “Morningglory plant response rating” value [2, 27] was 10 and the “Crabgrass, Large plant response rating” value [3, 28] was 0. The “Crabgrass, Large plant response rating” value [3, 27] was 0, the “Barnyardgrass plant response rating” value [4, 28] was 0 and the “Barnyardgrass plant response rating” value [4, 27] was 0. The “Plant response rating, Pigweed” value [5, 24] was 20, the “Plant response rating, Pigweed” value [5, 25] was 20 and the “Pigweed plant response rating” value [5, 26] was 10. The “Pigweed plant response rating” value [5, 25] was 65, the “Pigweed plant response rating” value [6, 28] was 10 and the “Pigweed plant response rating” value [6, 27] was 0. For the same compound, the “Lambsquarters plant response rating” value [7, 28] was 40, the “Lambsquarters plant response rating” value [7, 27] was 40 and the “Plant response rating, Barnyardgrass” value [8, 24] was 10. The “Plant response rating, Barnyardgrass” value [8, 25] was 10, the “Barnyardgrass plant response rating” value [8, 26] was 5 and the “Barnyardgrass plant response rating” value [8, 25] was 25. The “Surinam Grass plant response rating” value [9, 27] was 0, the “Plant response rating, Morningglory” value [10, 24] was 0 and the “Plant response rating, Morningglory” value [10, 25] was 10. The “Morningglory plant response rating” value [10, 26] was 0, the “Morningglory plant response rating” value [10, 25] was 15 and the “Blackgrass plant response rating” value [11, 28] was 0. The “Blackgrass plant response rating” value [11, 27] was 0, the “Ducksalad plant response rating” value [12, 29] was 0 and the “Cocklebur plant response rating” value [13, 28] was 10. For the same compound, the “Cocklebur plant response rating” value [13, 27] was 10, the “Plant response rating, Velvetleaf” value ([14]; Postemergence, 2000 g ai/ha, 0 to 100 scale, 0 no effect, 100 complete control) was 5 and the “Velvetleaf plant response rating” value [14, 26] was 0. The “Velvetleaf plant response rating” value [14, 25] was 0, the “Velvetleaf plant response rating” value [15, 28] was 0 and the “Velvetleaf plant response rating” value [15, 27] was 0. The “Oat, Wild plant response rating” value [16, 28] was 0, the “Oat, Wild plant response rating” value [16, 27] was 0 and the “Barnyardgrass plant response rating” value [17, 29] was 0. For the same compound, the “Rice plant response rating” value [18, 29] was 0, the “Sedge, Umbrella plant response rating” value [19, 29] was 0 and the “Foxtail, Giant plant response rating” value [20, 28] was 0. The “Foxtail, Giant plant response rating” value [20, 27] was 0, the “Plant response rating, Crabgrass, Large” value [21, 24] was 10 and the “Plant response rating, Crabgrass, Large” value [21, 25] was 15. The “Crabgrass, Large plant response rating” value [21, 26] was 25, the “Crabgrass, Large plant response rating” value [21, 25] was 35 and the “Wheat plant response rating” value ([22]; 250 g ai/ha, scale 0 to 100, 0 no effect, 100 complete control, preemergence) was 0. The “Wheat plant response rating” value [22, 28] was 0, the “Wheat plant response rating” value [22, 27] was 0 and the “Corn plant response rating” value [23, 27] was 10.

With Cc1nn(C(C)(C)C)nc1C(=O)Nc1cccc(C(=O)N2CC=CC2)n1 [Compound 441] the “Morningglory plant response rating” value [2, 30] was 0, the “Morningglory plant response rating” value [2, 31] was 0 and the “Crabgrass, Large plant response rating” value [3, 30] was 0. The “Crabgrass, Large plant response rating” value [3, 31] was 0, the “Barnyardgrass plant response rating” value ([4]; Postemergence, 125 g ai/ha, scale 0 (no effect) to 100 (complete control)) was 0 and the “Barnyardgrass plant response rating” value [4, 30] was 0. The “Pigweed plant response rating” value [6, 30] was 20, the “Pigweed plant response rating” value [6, 31] was 20 and the “Lambsquarters plant response rating” value [7, 30] was 20. For the same compound, the “Lambsquarters plant response rating” value [7, 31] was 20, the “Surinam Grass plant response rating” value [9, 30] was 0 and the “Surinam Grass plant response rating” value [9, 31] was 0. The “Blackgrass plant response rating” value [11, 30] was 40, the “Blackgrass plant response rating” value [11, 31] was 20 and the “Ducksalad plant response rating” value ([12]; 125 g ai/ha) was 0. For the same compound, the “Cocklebur plant response rating” value [13, 30] was 10, the “Cocklebur plant response rating” value [13, 31] was 10 and the “Velvetleaf plant response rating” value [15, 30] was 0. For the same compound, the “Velvetleaf plant response rating” value [15, 31] was 0, the “Oat, Wild plant response rating” value [16, 30] was 40 and the “Oat, Wild plant response rating” value [16, 31] was 30. The “Barnyardgrass plant response rating” value ([17]; 125 g ai/ha) was 0, the “Rice plant response rating” value ([18]; 125 g ai/ha) was 0 and the “Sedge, Umbrella plant response rating” value ([19]; 125 g ai/ha) was 0. For the same compound, the “Foxtail, Giant plant response rating” value [20, 30] was 0, the “Foxtail, Giant plant response rating” value [20, 31] was 0 and the “Wheat plant response rating” value ([22]; 500 g ai/ha, scale 0 to 100, 0 no effect, 100 complete control, preemergence) was 30. The “Wheat plant response rating” value [22, 30] was 30, the “Wheat plant response rating” value [22, 31] was 20 and the “Corn plant response rating” value [23, 30] was 30. The “Corn plant response rating” value [23, 31] was 0.
